This is an account of results in PMC5799093, “Proceedings of Réanimation 2018, the French Intensive Care Society International Congress” (Annals of Intensive Care, 2018).

Read-outs that look alike come from different tables or passages of the source.

Data set [1] is described as follows: Fatal carbon monoxide intoxication, forensic series (P-181). The following applies: 29 fatal cases, toxicological analysis at autopsy.
Data set [2] concerns Pseudomonas aeruginosa. Put plainly: Disk diffusion susceptibility of P. aeruginosa isolated from burned patients (P-48). The format is cell-based. The following applies: for strains resistant: 485 strains from burned patients 2012-2015, disk diffusion, FSM breakpoints.
Data set [3] deals with Pseudomonas aeruginosa. The data set can be described thus: Resistance of nosocomial infection isolates: Pseudomonas aeruginosa (P-222). The format is cell-based. The conditions noted are these: n = 14 isolates, 2016. The text has this: (§1) Patients and methods: This was a retrospective study conducted within a 22-bed medical ICU of a Tunisian teaching hospital (301 beds) carried from January 1st to December 31, 2016. We recorded demographic patients’ characteristics which ICU’s stay was complicated with at least one NI. Then we described pathogens and microbiological specificities of NI.

In the next data set the test system is P. aeruginosa. The data set can be described thus: Antibiotic resistance of P. aeruginosa (P-147). The format is cell-based.
Data set [4] deals with Pseudomonas aeruginosa (PA). The data set can be described thus: Antibiotic resistance of Pseudomonas aeruginosa before/after antibiotic stewardship (P-214). The format is cell-based.
Data set [5] deals with Pseudomonas. The conditions noted are these: January 2010 - June 2014.
Data set [6] relates to Acinetobacter baumannii. The format is cell-based. The conditions noted are these: blood culture isolates 2012–2016. The procedure:
(§2) Patients and methods: From January 2012 to December 2016, a total of 2,182 non repetitive strains were isolated from blood cultures. Incubation of blood culture vials and the detection of bacterial growth were performed by the BACTEC system. All Isolated organisms were identified on the basis of standard microbiological techniques. Antibiotic susceptibility testing was carried out by the agar disk diffusion method, and susceptibility results were interpreted using clinical breakpoints according to CA-SFM 2013 and 2015 guidelines. Data were analyzed using the SIR-system. Minimum inhibitory concentrations of colistin, imipenem and vancomycin were determined using the Etest® method (bioMérieux).

Data set [7] deals with Pseudomonas aeruginosa.
For a further data set, the system named is Acinetobacter Baumanii. The data set can be described thus: Resistance of nosocomial infection isolates: Acinetobacter Baumanii (P-222). The format is cell-based. The following applies: n = 39 isolates, 2016.
Text: as §1

Data set [8] has as its system Extended spectrum betalactamase producing Enterobacteriaceae. Put plainly: Antibiotic resistance of ESBL producing Enterobacteriaceae (P-147). The data set is classed as cell-based. The following applies: isolates 2015 and 2016.
Data set [9] concerns Pseudomonas. The data set can be described thus: Resistance of VAP isolates: pseudomonas (P-224). The following applies: 2014-2015. The format is cell-based. The text has this:
(§3) Patients and methods: Retrospective study spread over 2 years from January 2014 to December 2015 carried out in the resuscitation unit of the medical and surgical emergency department of CHUOran. Data utilization with Whonet software. The criteria of vap retained are those of CTINILS (May 2007).

In data set [10] the test system is carbapenemase-producing Enterobacteriaceae. Put plainly: Antibiotic susceptibility of Enterobacteriaceae with decreased susceptibility to carbapenems. The data set is classed as cell-based.
A short description of data set [11]: Beta-lactam plasma concentrations in children with severe sepsis or septic shock (HPLC). The conditions noted are these: current standard dosing.
The test system of a further data set is acintobacter baumanii. Put plainly: Resistance of VAP isolates: baumanii (P-224). The conditions noted are these: 2014-2015. The format is cell-based.
Text: as §3

Data set [12] relates to Acinetobacter baumannii. The following applies: January 2010 - June 2014.
A further data set has as its system Escherichia-coli. The data set can be described thus: Resistance in nosocomial urinary tract infection: Escherichia-coli (P-219). The conditions noted are these: January 2010 - June 2014.
Data set [13] can be described thus: New-generation anticonvulsive drug poisoning in ICU with pharmacokinetics (P-146). The format is in vivo, human. The conditions noted are these: membrane-stabilizing effects resulting in acute cardiac failure. The text has this:
Pharmacokinetics modeling and parameters were obtained using WinNonlin v.5.1 software.

For data set [14], the system named is Staphylococcus aureus. The data set can be described thus: Resistance in nosocomial urinary tract infection: Staphylococcus aureus (P-219). The following applies: January 2010 - June 2014.
For data set [15], the system named is Staphylococcus aureus. The data set is classed as cell-based. The conditions noted are these: blood culture isolates 2012–2016. The procedure: as §2
For data set [16], the system named is coagulase negative Staphylococcus. The data set can be described thus: Resistance of nosocomial infection isolates: coagulase negative Staphylococcus (P-222). The format is cell-based. The following applies: n = 12 isolates, 2016.
Text: as §1

Another data set concerns Acinetobacter baumanni. Put plainly: Antibiotic resistance of Acinetobacter baumanni (P-147). The data set is classed as cell-based. The following applies: imipenem resistant isolates.
The subject of data set [17] is microorganisms of post-operative pneumonia. The data set can be described thus: Susceptibility of microorganisms cultured in severe post-operative pneumonia (P-213). The data set is classed as cell-based. The conditions noted are these: 66 patients with significant culture. Here is the method: Patients and methods: All patients with severe POP occurring within 30 days after lung resection between January 2013 and December 2015 were included. We collected data on clinical presentation, results of microbiological investigations, antibiotic regimen and outcomes. The quality of antibiotic use was assessed using indicators previously validated in the literature.

Data set [18] in a line: Piperacillin-tazobactam 16 g day continuous infusion, PK PD target attainment. The format is in vivo, critically ill patients. The conditions noted are these: MIC 16 mg L^−1 for piperacillin, n = 60.
Where [19] appears, read: period 2011–2014 (P2), after antibiotic stewardship, p < 0.01.

For `[C-]#[O+]` [carbon monoxide], the “mean HbCO level” value in [1] turned out to be 51.59%.
Compound `CC(C)(O/N=C(\C(=O)N[C@@H]1C(=O)N2C(C(=O)[O-])=C(C[n+]3ccccc3)CS[C@H]12)c1csc(N)n1)C(=O)O` [ceftazidim] came in with a strains resistant in the data set on Pseudomonas aeruginosa [2] of 21%. For the same compound, the resistance with Pseudomonas aeruginosa [3] stood at 33.3%; in the data set with P. aeruginosa (isolates 2015 and 2016) it was 10%. In addition, the “antibiotic resistance of PA” value in data set [4] (period 2007–2010 (P1)) is reported as 42%; in [4] (setting [19]), 11%.
`C[C@@H](O)[C@H]1C(=O)N2C(C(=O)O)=C(SCCN=CN)C[C@H]12` [imipenem] returned a strains resistant with Pseudomonas aeruginosa [2] of 56%. Also, the resistant in the data set on Pseudomonas [5] is reported as 64%; in the data set with Pseudomonas [9], 18.4%; in the data set with acintobacter baumanii it was 55%; in the data set with Acinetobacter baumannii [12], 87%; with Escherichia-coli, 8%. The resistance rate in the data set with Acinetobacter baumannii [6] is listed as 94%; in the data set on Pseudomonas aeruginosa [7] it was 72%; with Klebsiella pneumoniae, 15%. The compound further came in with a resistance with Acinetobacter Baumanii of 100%. In addition, in data set [8], the rate of resistance came to 2.17%. For the same compound, the “strains with MIC > 8 mg l” value in data set [10] (39 selected bacteria) was 30%. For the same compound, the “patients with insufficient plasma concentration” value in data set [11] is recorded as 0%. For the same compound, the “antibiotic resistance of PA” value is reported as 38% in [4] (period 2007–2010 (P1)) and 18% in data set [4] (setting [19]).
For the compound `COC[C@@H](NC(C)=O)C(=O)NCc1ccccc1` [lancosamide, lacosamide], the outcome in [13] is “died”.
As to `COc1cccc(OC)c1C(=O)N[C@@H]1C(=O)N2[C@@H]1SC(C)(C)[C@@H]2C(=O)O` [methicillin], the resistant is reported as 25% in the data set on Staphylococcus aureus [14] and 75% in data set [16]. In the data set with Staphylococcus aureus [15], this compound had a resistance rate of 70%.
In turn, colistin yielded a strains susceptible in the data set on Pseudomonas aeruginosa [2] (485 strains from burned patients, disk diffusion) of 100%. Also, the sensitivity result (with Acinetobacter baumanni; with P. aeruginosa (Ceftazidim resistant isolates); in data set [8]) was “all bacterial stocks were sensitive” in each case. In [10] (colistin excepting with Proteus), this compound returned a susceptibility of 98%.
Turning to piperacillin-tazobactam, in [17], the “patients whose microorganisms were sensitive” value turned out to be 86%. Further, in data set [18], the “rate of empirical target non-attainment” value came out at 17%. In [10] (CA-SFM 2015), this compound displayed a resistant rate of 87%. The “patients with insufficient plasma concentration” value in [11] was 77%.
